# US8110571B2, “Benzimidazole and benzothiazole derivatives, method for preparing same, use thereof as drugs, pharmaceutical compositions and novel use especially as c-MET inhibitors” (Aventis Pharma S.A., priority 2005, dated 2012)
# Where a name gives a salt, the structure may show the parent alone.
row,melting point [°C],Compound
1,88,"CN1CCN(c2ccc(CNC(=O)Nc3nc4ccc(OS(=O)(=O)c5c(Cl)cccc5Cl)cc4s3)cc2)CC1 (as salt: benzene-sulfonate) [Example 52, 2-({[4-(4-methylpiperazin-1-yl)benzyl]carbamoyl}amino)-1,3-benzothiazol-6-yl 2,6-dichlorobenzene-sulfonate]"
2,171,"COCCNC(=O)Nc1nc2cc(OS(=O)(=O)c3c(Cl)cccc3Cl)ccc2[nH]1 (as salt: benzenesulfonate) [Example 1, 2-{[(2-methoxyethyl)carbamoyl]amino}-1H-benzimidazol-5-yl 2,6-dichlorobenzenesulfonate]"
3,138,"COCCNC(=O)Nc1nc2cc(OS(=O)(=O)c3c(C)cccc3Cl)ccc2[nH]1 (as salt: benzenesulfonate) [Example 2, 2-{[(2-Methoxyethyl)carbamoyl]amino}-1H-benzimidazol-5-yl 2-chloro-6-methylbenzenesulfonate]"
4,140,"COCCNC(=O)Nc1nc2cc(OS(=O)(=O)c3c(C)cc(C)cc3C)ccc2[nH]1 (as salt: benzenesulfonate) [Example 3, 2-{[(2-Methoxyethyl)carbamoyl]amino}-1H-benzimidazol-5-yl 2,4,6-trimethylbenzenesulfonate]"
5,149,"O=C(NCCN1CCOCC1)Nc1nc2cc(OS(=O)(=O)c3c(Cl)cccc3Cl)ccc2[nH]1 (as salt: benzenesulfonate) [Example 5, 2-{[(2-Morpholin-4-ylethyl)carbamoyl]amino}-1H-benzimidazol-5-yl 2,6-dichlorobenzenesulfonate]"
6,190 to 192,"O=C(NCCN1CCOCC1)Nc1nc2cc(OS(=O)(=O)c3c(F)cccc3F)ccc2[nH]1 (as salt: benzenesulfonate) [Example 9, 2-{[(2-Morpholin-4-ylethyl)carbamoyl]amino}-1H-benzimidazol-5-yl 2,6-difluorobenzenesulfonate]"
7,160 to 165,"O=C(Nc1nc2cc(OS(=O)(=O)c3c(Cl)cccc3Cl)ccc2[nH]1)NC1CC1 (as salt: benzenesulfonate) [Example 12, 2-[(Cyclopropylcarbamoyl)amino]-1H-benzimidazol-5-yl 2,6-dichlorobenzenesulfonate]"
8,204,"O=C(NCc1ccccn1)Nc1nc2cc(OS(=O)(=O)c3c(Cl)cccc3Cl)ccc2[nH]1 (as salt: benzenesulfonate) [Example 15, 2-{[(Pyridin-2-ylmethyl)carbamoyl]amino}-1H-benzimidazol-5-yl 2,6-dichlorobenzenesulfonate]"
9,210,"O=C(NCc1cccnc1)Nc1nc2cc(OS(=O)(=O)c3c(Cl)cccc3Cl)ccc2[nH]1 (as salt: benzenesulfonate) [Example 16, 2-{[(Pyridin-3-ylmethyl)carbamoyl]amino}-1H-benzimidazol-5-yl 2,6-dichlorobenzenesulfonate]"
10,165 to 170,"O=C(NCc1ccncc1)Nc1nc2cc(OS(=O)(=O)c3c(Cl)cccc3Cl)ccc2[nH]1 (as salt: benzenesulfonate) [Example 17, 2-{[(Pyridin-4-ylmethyl)carbamoyl]amino}-1H-benzimidazol-5-yl 2,6-dichlorobenzenesulfonate]"
11,195,"O=C(NCc1ccccc1)Nc1nc2cc(OS(=O)(=O)c3c(Cl)cccc3Cl)ccc2[nH]1 (as salt: benzenesulfonate) [Example 18, 2-[(Benzylcarbamoyl)amino]-1H-benzimidazol-5-yl 2,6-dichlorobenzenesulfonate]"
12,131,"O=C(NCCc1cccnc1)Nc1nc2cc(OS(=O)(=O)c3c(Cl)cccc3Cl)ccc2[nH]1 (as salt: benzenesulfonate) [Example 19, 2-{[(2-Pyridin-3-ylethyl)carbamoyl]amino}-1H-benzimidazol-5-yl 2,6-dichlorobenzenesulfonate]"
13,180,"CN1CCN(CCNC(=O)Nc2nc3cc(OS(=O)(=O)c4c(Cl)cccc4Cl)ccc3[nH]2)CC1 (as salt: benzenesulfonate) [Example 20, 2-({[2-(4-Methylpiperazin-1-yl)ethyl]carbamoyl}amino)-1H-benzimidazol-5-yl 2,6-dichlorobenzenesulfonate]"
14,145 to 150,"O=C(NCCN1CCNCC1)Nc1nc2cc(OS(=O)(=O)c3c(Cl)cccc3Cl)ccc2[nH]1 (as salt: benzenesulfonate) [Example 21, 2-{[(2-piperazin-1-ylethyl)carbamoyl]amino}-1H-benzimidazol-5-yl 2,6-dichlorobenzenesulfonate]"
15,165,"O=C(NCCC1CCNCC1)Nc1nc2cc(OS(=O)(=O)c3c(Cl)cccc3Cl)ccc2[nH]1 (as salt: benzenesulfonate) [Example 22, 2-{[(2-Piperidin-4-ylethyl)carbamoyl]amino}-1H-benzimidazol-5-yl 2,6-dichlorobenzenesulfonate]"
16,242,"O=C(Nc1nc2cc(OS(=O)(=O)c3c(Cl)cccc3Cl)ccc2[nH]1)C1CC1 (as salt: benzenesulfonate) [Example 24, 2-[(Cyclopropylcarbonyl)amino]-1H-benzimidazol-5-yl 2,6-dichlorobenzenesulfonate]"
17,188,"O=C(CCc1cccnc1)Nc1nc2cc(OS(=O)(=O)c3c(Cl)cccc3Cl)ccc2[nH]1 (as salt: benzenesulfonate) [Example 25, 2-[(3-Pyridin-3-ylpropanoyl)amino]-1H-benzimidazol-5-yl 2,6-dichlorobenzenesulfonate]"
18,135,"O=C(CCC1CCN(C(=O)c2ccccc2)CC1)Nc1nc2cc(OS(=O)(=O)c3c(Cl)cccc3Cl)ccc2[nH]1 (as salt: benzenesulfonate) [Example 26, 2-{[3-(1-Benzoylpiperidin-4-yl)propanoyl]amino}-1H-benzimidazol-5-yl 2,6-dichlorobenzenesulfonate]"
19,135,"O=C(CCC1CCNCC1)Nc1nc2cc(OS(=O)(=O)c3c(Cl)cccc3Cl)ccc2[nH]1 (as salt: benzenesulfonate) [Example 27, 2-[(3-Piperidin-4-ylpropanoyl)amino]-1H-benzimidazol-5-yl 2,6-dichlorobenzenesulfonate]"
20,174,"O=C(Nc1nc2cc(OS(=O)(=O)c3c(F)cccc3F)ccc2[nH]1)C1CC1 (as salt: benzenesulfonate) [Example 29, 2-[(Cyclopropylcarbonyl)amino]-1H-benzimidazol-5-yl 2,6-difluorobenzenesulfonate]"
21,118,"O=C(NCc1ccccn1)Nc1nc2ccc(OS(=O)(=O)c3c(Cl)cccc3Cl)cc2s1 (as salt: benzenesulfonate) [Example 30, 2-{[(Pyridin-2-ylmethyl)carbamoyl]amino}-1,3-benzothiazol-6-yl 2,6-dichlorobenzenesulfonate]"
22,128,"O=C(Nc1nc2ccc(OS(=O)(=O)c3c(Cl)cccc3Cl)cc2s1)NC1CC1 (as salt: benzenesulfonate) [Example 31, 2-[(Cyclopropylcarbamoyl)amino]-1,3-benzothiazol-6-yl 2,6-dichlorobenzenesulfonate]"

row,Compound,melting point [°C]
1,"CC(C)(C)OC(=O)Nc1nc2cc(OS(=O)(=O)c3c(Cl)cccc3Cl)ccc2[nH]1 (as salt: benzenesulfonate) [Example 23, 2-[(tert-Butoxycarbonyl)amino]-1H-benzimidazol-5-yl 2,6-dichlorobenzenesulfonate]",205
